Reference: patent US8912219B2, “Aryl sulfamide and sulfamate derivatives as RORc modulators” (Genentech, Inc., priority 2013, dated 2014)

Biological target: RORc ligand binding domain (Homo sapiens (Human), UniProt P51449)
Sequence (P51449 269-508): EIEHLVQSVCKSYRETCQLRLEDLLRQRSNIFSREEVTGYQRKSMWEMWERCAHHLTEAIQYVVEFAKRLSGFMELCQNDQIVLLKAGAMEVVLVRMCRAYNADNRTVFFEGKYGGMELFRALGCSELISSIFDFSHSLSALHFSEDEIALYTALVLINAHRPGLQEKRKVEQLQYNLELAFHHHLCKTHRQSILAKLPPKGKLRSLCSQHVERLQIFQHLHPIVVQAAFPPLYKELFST

Q: For CC(=O)N1CCN(c2ccc(CN(C3CCC3)S(=O)(=O)N(C)c3ccccc3)c(F)c2)CC1 [Compound 2, 1-(4-(4-acetylpiperazin-1-yl)-2-fluorobenzyl)-1-cyclobutyl-3-methyl-3-phenyl-sulfonamide], which IC50 is on record?
A: 0.028 µM

Q: CS(=O)(=O)N1CCC(Oc2ccc(N3CCN(Cc4ccc(F)cc4)S3(=O)=O)cc2)CC1 [Compound 3, 2-(4-fluorobenzyl)-5-(4-((1-(methylsulfonyl)piperidin-4-yl)oxy)phenyl)-1,2,5-thiadiazolidine 1,1-dioxide] was tested. Which IC50 did it give?
A: 6.42 µM

Q: How did the IC50 turn out when CC(C)CN(Cc1ccc(F)cc1)S(=O)(=O)Nc1ccc(OC2CCN(S(C)(=O)=O)CC2)cc1 [Compound 4, 1-(4-fluorobenzyl)-1-isobutyl-3-(4-((1-(methylsulfonyl)piperidin-4-yl)oxy)phenyl)-sulfamide] was run?
A: 0.23 µM

Q: With CC(=O)N1CCN(c2ccc(CN(C3CCC3)S(=O)(=O)Oc3ccccc3)c(F)c2)CC1 [Compound 10, phenyl 4-(4-acetylpiperazin-1-yl)-2-fluorobenzyl(cyclobutyl)sulfamate] as the molecule, how does the IC50 read?
A: 0.007 µM
